Our source for the IC50 values is patent US20240124504A1, “AROMATIC HETEROCYCLIC COMPOUND, AND PHARMACEUTICAL COMPOSITION AND APPLICATION THEREOF” (GT APEIRON THERAPEUTICS LIMITED, priority 2020, published 2024).

One assay concerns the target CDK2/cyclinE1 complex (Homo sapiens, UniProt P24941). In words: In-vitro enzymatic inhibitory activity testing, CDK2 inhibition assay (Caliper EZ Reader II). The settings on record: CDK2/cyclinE1 0.5 nM, 180 min at 27° C. Type of assay: biochemical. As for the experimental part: CDK12/CyclinK was diluted in an assay buffer (80 mM MES PH 6.5, 0.01% Tween 20, 50 ug/mL BSA, 10 mM MgCl2) to afford a corresponding enzyme solution with the 2.4 concentration. […] A CDK9/cyclinT1 complex (8 nM) and a “5-FAM-CDK9tide” peptide substrate (2 IM, synthetic fluorophore-labeled peptide with the following sequence: 5-FAM-GSRTPMY-NH2, wherein 5-FAM was as defined above and NH2 represented C-terminal amide) were used for a CDK9 inhibition assay. […] A CDK2/cyclinE1 complex (0.5 nM) and “5-FAM-CDK7tide” (2 μM) as defined above were used for CDK2 inhibition assay.
(§1) A reaction mixture was analyzed on Caliper EZ Reader II by electrophoretic separation of a fluorogenic substrate and a phosphorylated product. Data were calculated by using GraphPad Prism version 6.0, and IC50 values were adjusted and obtained by using a nonlinear regression model of a dose response curve.

Assay [1] concerns the target CDK7/cyclinH/MAT1 complex (Homo sapiens, UniProt P50613). In words: In-vitro enzymatic inhibitory activity testing, CDK7 inhibition assay (Caliper EZ Reader II). Type of assay: biochemical. The settings on record: CDK7/cyclinH/MAT1 6 nM, 180 min at 27° C. How it is done: (§2) CDK12/CyclinK was diluted in an assay buffer (80 mM MES PH 6.5, 0.01% Tween 20, 50 ug/mL BSA, 10 mM MgCl2) to afford a corresponding enzyme solution with the 2.4 concentration. A compound was dissolved in dimethyl sulfoxide (DMSO) at a concentration of 10 mM. […] 2 ul of a test compound solution was mixed with 5 ul of the enzyme solution; after incubation for 10 min, 5 ul of the polypeptide substrate and ATP mixed solution was added; incubation was carried out for 180 min at 27° C.; and then, the reaction was terminated by adding 4 uL of EDTA with a concentration of 120 mM to each sample. […] A CDK9/cyclinT1 complex (8 nM) and a “5-FAM-CDK9tide” peptide substrate (2 IM, synthetic fluorophore-labeled peptide with the following sequence: 5-FAM-GSRTPMY-NH2, wherein 5-FAM was as defined above and NH2 represented C-terminal amide) were used for a CDK9 inhibition assay. […] A CDK2/cyclinE1 complex (0.5 nM) and “5-FAM-CDK7tide” (2 μM) as defined above were used for CDK2 inhibition assay.
as §1

Assay [2] deals with T1, CDK12 (aa686-1082)/cyclinK complex (Homo sapiens, UniProt Q9NYV4).
T1 construct: A CDK12 (aa686-1082)/cyclinK complex (50 nM)
In words: In-vitro enzymatic inhibitory activity testing, CDK12 inhibition assay (Caliper EZ Reader II). The following applies: CDK12/cyclinK 50 nM, 180 min at 27° C.; read-out: CDK12 IC50. It counts as biochemical. As for the experimental part: An assay was carried out in a U-bottom 384-well plate (coming, 4512#), and the reaction temperature was 27° C. CDK7/CyclinH was diluted in an assay buffer (20 mM MES PH 6.75, 0.01% Tween 20, 50 ug/mL BSA, 6 mM MgCl2) to afford a corresponding enzyme solution with the 2.4× concentration. CDK2/CyclinE1 was diluted in an assay buffer (20 mM MES PH 6.75, 0.01% Tween 20, 50 ug/mL BSA, 6 mM MgCl2) to afford a corresponding enzyme solution with the 2.4× concentration. CDK9/CyclinT1 was diluted in an assay buffer (20 mM MES PH 6.75, 0.01% Tween 20, 50 ug/mL BSA, 10 mM MgCl2) to afford a corresponding enzyme solution with the 2.4× concentration. CDK12/CyclinK was diluted in an assay buffer (80 mM MES PH 6.5, 0.01% Tween 20, 50 ug/mL BSA, 10 mM MgCl2) to afford a corresponding enzyme solution with the 2.4 concentration. A compound was dissolved in dimethyl sulfoxide (DMSO) at a concentration of 10 mM. During use, the compound was diluted with DMSO into 10 concentration gradients from 25 nM to 500 uM, and respectively diluted by 8.3 folds in the assay buffer to afford a compound solution with a 6× concentration. A polypeptide substrate and ATP were diluted in the assay buffer to afford a polypeptide substrate and ATP mixed solution with a 2.4× concentration. 2 ul of a test compound solution was mixed with 5 ul of the enzyme solution; after incubation for 10 min, 5 ul of the polypeptide substrate and ATP mixed solution was added; incubation was carried out for 180 min at 27° C.; and then, the reaction was terminated by adding 4 uL of EDTA with a concentration of 120 mM to each sample. […]. Specifically, a CDK7/cyclinH/MAT1 complex (6 nM) and a “5-FAMCD K 7 tide” peptide substrate (2 μM, synthetic fluorophore-labeled peptide with the following sequence: 5-FAM-[…], wherein “5-FAM” refers to 5-carboxyfluorescein) were used for a CDK7 inhibition assay. A CDK9/cyclinT1 complex (8 nM) and a “5-FAM-CDK9tide” peptide substrate (2 IM, synthetic fluorophore-labeled peptide with the following sequence: 5-FAM-GSRTPMY-NH2, wherein 5-FAM was as defined above and NH2 represented C-terminal amide) were used for a CDK9 inhibition assay. A CDK12 (aa686-1082)/cyclinK complex (50 nM) and “5-FAM-CDK9tide” (2 μM) as defined above were used for a CDK12 inhibition assay. A CDK2/cyclinE1 complex (0.5 nM) and “5-FAM-CDK7tide” (2 μM) as defined above were used for CDK2 inhibition assay.
as §1

The target of another assay is CDK9/cyclinT1 complex (Homo sapiens, UniProt P50750). In words: In-vitro enzymatic inhibitory activity testing, CDK9 inhibition assay (Caliper EZ Reader II). It counts as biochemical. The following applies: CDK9/cyclinT1 8 nM, 180 min at 27° C. How it is done: as §2, §1
Another assay has as its system ovarian cancer A2780. In words: Cell biological activity detection (CyQuant, 72 hours), A2780. Type of assay: cell-based, human. The settings on record: A2780 cells, incubation for 72 hours. As for the experimental part:
(§3) A2780 and HCC70 cells were subjected to trypsin digestion treatment, and cell suspensions were respectively transferred to 15 mL centrifuge tubes and centrifuged for 5 min at […]) rpm; supernatant was discarded, and resuspension was carried out in a fresh medium (RPMI 1640+10% FBS), after counting, cells were seeded into a 384-well plate at 2000/well (50 μL of 1640+10% FBS medium was added to the 2nd column and the 23rd column of the 384-well plate, and 50 μL of DPBS was added to the surrounding wells). Incubation was carried out overnight in an incubator (37° C., 5% CO2).
(§4) The compound was added to the well plates the next day. The compound had the highest concentration of 10 μM and was diluted at 1:4, and there were a total of 9 concentrations; and a positive compound Paclitaxel had the highest concentration of 1 μM and was diluted at 1:3, and there were a total of 9 concentrations. The DMSO content in each well was unified to 0.2%. The cell plates were centrifuged for 30 seconds at 800 rpm and placed in an incubator (37° C., 5% CO2) for incubation for 72 hours. On the fourth day, a Cyquant reagent (3×) was formulated according to kit instructions, and formulation was carried out for each 384-well plate according to the following proportions: DPBS 11.568 mL, CyQuant®? Direct nucleic acid stain 72 μL, and CyQuant® Direct background suppressor 360 μL. After uniform mixing, the reagent was placed at room temperature for further use. The cell plates were taken out and equilibrated for 30 min at room temperature, and 25 μL of the Cyquant reagent (3×) per well was dispensed into the cells of the 384-well plates by Multi-drop, and incubation was carried out for more than 60 minutes at 37° C. Acumen plate reading (Acumen setting: an excitation wavelength of 488 nm). IC50 results were analyzed by XLFIT5 from IDBS Company.

Assay [3] relates to human breast cancer cells HCC70. Nature of the assay: Cell biological activity detection (CyQuant, 72 hours), HCC70. It counts as cell-based. The following applies: Homo sapiens, HCC70, 72 h, incubation for 72 hours. How it is done:
as §3, §4

T1 sequence (Q9NYV4 686-1082, species assumed): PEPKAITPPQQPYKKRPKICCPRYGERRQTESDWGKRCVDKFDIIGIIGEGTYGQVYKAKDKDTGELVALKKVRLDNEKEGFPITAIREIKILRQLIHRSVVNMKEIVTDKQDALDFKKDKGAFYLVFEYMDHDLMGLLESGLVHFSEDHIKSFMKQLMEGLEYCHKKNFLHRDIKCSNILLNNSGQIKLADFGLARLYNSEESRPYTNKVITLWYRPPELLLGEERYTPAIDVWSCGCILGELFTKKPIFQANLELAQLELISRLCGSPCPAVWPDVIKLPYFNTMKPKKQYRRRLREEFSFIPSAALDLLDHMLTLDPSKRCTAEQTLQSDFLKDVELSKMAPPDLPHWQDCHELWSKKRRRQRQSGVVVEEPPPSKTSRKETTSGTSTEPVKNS
T1 sequence (O75909 whole entry partner, species assumed, the tested form may be a part): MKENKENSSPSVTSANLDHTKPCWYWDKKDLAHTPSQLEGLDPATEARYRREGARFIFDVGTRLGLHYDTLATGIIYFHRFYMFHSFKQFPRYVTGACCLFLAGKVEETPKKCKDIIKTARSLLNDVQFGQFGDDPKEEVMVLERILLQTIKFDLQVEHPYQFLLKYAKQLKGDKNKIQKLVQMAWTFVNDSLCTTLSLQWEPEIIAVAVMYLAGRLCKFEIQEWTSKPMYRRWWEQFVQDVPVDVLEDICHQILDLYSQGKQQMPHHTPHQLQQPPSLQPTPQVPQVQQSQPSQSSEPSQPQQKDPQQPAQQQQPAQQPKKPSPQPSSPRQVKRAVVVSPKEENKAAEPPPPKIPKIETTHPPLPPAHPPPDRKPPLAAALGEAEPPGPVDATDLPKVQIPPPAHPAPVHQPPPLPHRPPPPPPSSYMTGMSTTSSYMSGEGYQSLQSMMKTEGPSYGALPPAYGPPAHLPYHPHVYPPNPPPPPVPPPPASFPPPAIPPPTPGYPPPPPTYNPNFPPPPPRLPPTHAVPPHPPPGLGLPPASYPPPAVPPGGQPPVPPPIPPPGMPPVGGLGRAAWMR
CDK9/cyclinT1 complex, sequence (P50750 whole entry, species assumed): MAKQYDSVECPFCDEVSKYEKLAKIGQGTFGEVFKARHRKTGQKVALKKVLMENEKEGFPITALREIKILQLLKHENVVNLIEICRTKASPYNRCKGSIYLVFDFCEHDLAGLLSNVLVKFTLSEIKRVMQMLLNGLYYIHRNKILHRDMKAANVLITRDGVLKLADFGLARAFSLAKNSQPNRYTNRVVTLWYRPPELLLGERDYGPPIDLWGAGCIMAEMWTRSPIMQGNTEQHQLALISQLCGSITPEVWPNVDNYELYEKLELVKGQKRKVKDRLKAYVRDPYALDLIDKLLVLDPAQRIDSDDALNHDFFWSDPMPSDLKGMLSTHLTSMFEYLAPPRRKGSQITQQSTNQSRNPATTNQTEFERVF
CDK9/cyclinT1 complex, sequence (O60563 whole entry partner, species assumed): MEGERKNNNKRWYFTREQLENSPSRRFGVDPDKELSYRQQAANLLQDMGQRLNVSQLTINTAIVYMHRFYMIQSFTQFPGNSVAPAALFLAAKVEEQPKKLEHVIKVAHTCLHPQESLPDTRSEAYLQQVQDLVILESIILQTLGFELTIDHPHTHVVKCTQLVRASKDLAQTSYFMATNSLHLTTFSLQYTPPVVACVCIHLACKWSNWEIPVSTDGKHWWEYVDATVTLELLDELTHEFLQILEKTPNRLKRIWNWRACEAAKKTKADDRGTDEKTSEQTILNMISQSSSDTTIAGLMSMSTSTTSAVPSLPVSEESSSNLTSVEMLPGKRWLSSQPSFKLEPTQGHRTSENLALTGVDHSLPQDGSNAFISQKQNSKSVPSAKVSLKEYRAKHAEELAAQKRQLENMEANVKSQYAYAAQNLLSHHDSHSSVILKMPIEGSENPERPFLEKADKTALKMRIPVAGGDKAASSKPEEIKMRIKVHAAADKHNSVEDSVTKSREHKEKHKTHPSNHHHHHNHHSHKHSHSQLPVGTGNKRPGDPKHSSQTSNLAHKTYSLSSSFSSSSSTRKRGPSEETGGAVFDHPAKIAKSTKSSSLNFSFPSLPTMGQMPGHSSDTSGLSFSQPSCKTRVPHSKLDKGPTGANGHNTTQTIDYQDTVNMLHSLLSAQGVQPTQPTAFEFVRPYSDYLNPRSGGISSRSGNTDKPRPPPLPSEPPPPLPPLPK
CDK7/cyclinH/MAT1 complex, sequence (P50613 whole entry, species assumed): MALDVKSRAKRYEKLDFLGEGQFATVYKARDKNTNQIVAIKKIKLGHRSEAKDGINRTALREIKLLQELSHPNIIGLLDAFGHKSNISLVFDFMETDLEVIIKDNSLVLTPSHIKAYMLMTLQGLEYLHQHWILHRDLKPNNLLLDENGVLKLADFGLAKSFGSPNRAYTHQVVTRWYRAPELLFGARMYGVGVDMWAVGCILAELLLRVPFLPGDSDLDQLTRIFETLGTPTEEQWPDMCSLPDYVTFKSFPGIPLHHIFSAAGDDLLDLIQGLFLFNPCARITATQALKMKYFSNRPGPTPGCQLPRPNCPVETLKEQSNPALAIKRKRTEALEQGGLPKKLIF
CDK7/cyclinH/MAT1 complex, sequence (P51946 whole entry partner, species assumed): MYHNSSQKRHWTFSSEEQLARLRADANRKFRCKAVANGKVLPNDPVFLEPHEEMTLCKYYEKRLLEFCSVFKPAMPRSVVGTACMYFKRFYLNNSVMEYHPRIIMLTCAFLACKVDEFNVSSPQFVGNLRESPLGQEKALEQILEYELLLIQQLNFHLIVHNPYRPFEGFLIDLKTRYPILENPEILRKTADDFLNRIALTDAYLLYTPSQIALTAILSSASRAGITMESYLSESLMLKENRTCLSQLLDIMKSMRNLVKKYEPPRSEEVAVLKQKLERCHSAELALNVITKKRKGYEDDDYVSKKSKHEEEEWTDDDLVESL
CDK7/cyclinH/MAT1 complex, sequence (P51948 whole entry partner, species assumed): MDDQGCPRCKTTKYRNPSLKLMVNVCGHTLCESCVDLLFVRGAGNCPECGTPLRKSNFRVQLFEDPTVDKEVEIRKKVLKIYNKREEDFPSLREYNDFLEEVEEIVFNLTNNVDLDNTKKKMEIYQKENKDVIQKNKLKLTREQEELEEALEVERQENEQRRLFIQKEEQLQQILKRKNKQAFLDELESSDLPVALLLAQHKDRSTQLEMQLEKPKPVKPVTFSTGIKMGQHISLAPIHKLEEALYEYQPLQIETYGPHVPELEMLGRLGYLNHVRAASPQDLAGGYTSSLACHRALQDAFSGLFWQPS

In general, IC50 refers to the point on the concentration scale where inhibition reaches its midpoint. `CP(C)(=O)c1cccc2c(-c3nc(NCC(O)C4CCC4)ncc3C(F)(F)F)c[nH]c12` (single isomer, unassigned) [Compound 140]: the IC50 at CDK2/cyclinE1 complex was 5 to 50 µM; in assay [1], 0.02 to 0.2 µM; in assay [2] it was above 50 µM; at CDK9/cyclinT1 complex, above 50 µM.
On to `FC(F)(F)c1cnc(N[C@@H]2CCC[C@@H]3CNC[C@@H]32)nc1-c1c[nH]c2nc(N3CCOCC3)ccc12` [Compound 45, (3aR,4R,7aS)-N-(4-(6-morpholinyl-1H-pyrrolo[2,3-b]pyridin-3-yl)-5-(trifluoromethyl)pyrimidin-2-yl)octahydro-1H-isoindole-4-amine], for which the IC50 against CDK2/cyclinE1 complex was 5 to 50 µM; in assay [1] it was 0.02 to 0.2 µM; in assay [2], 5 to 50 µM; at CDK9/cyclinT1 complex, 5 to 50 µM.
As to `Cc1noc(C)c1-c1ccc2c(-c3nc(N[C@@H]4CCC45CNC5)ncc3C(F)(F)F)c[nH]c2n1` [Compound 36, (R)—N-(4-(6-(3,5-dimethylisoxazol-4-yl)-1H-pyrrolo[2,3-b]pyridin-3-yl)-5-(trifluoromethyl)pyrimidin-2-yl)-2-azaspiro[3.3]heptan-5-amine], the IC50 against CDK2/cyclinE1 complex was 5 to 50 µM; in assay [1], below 0.02 µM; in assay [2], 0.2 to 5 µM; at CDK9/cyclinT1 complex, 5 to 50 µM; in the assay on ovarian cancer A2780 (Homo sapiens, A2780, 72 h) it was below 0.02 µM.
For the compound `COc1cc(P(C)(C)=O)c2[nH]cc(-c3nc(N[C@@H](C)CO)ncc3C(F)(F)F)c2c1` [Compound 104], the IC50 was 0.2 to 5 µM at CDK2/cyclinE1 complex, 0.02 to 0.2 µM in assay [1], above 50 µM in assay [2] and above 50 µM against CDK9/cyclinT1 complex.
Take `FC(F)(F)c1cnc(NC2CCCC3(CCCN3)C2)nc1-c1c[nH]c2nc(N3CCOCC3)ccc12` (stereo not shown) [Compound 38, N-(4-(6-morpholinyl-1H-pyrrolo[2,3-b]pyridin-3-yl)-5-(trifluoromethyl)pyrimidin-2-yl)-1-azaspiro[4.5]decan-7-amine]: the IC50 against CDK2/cyclinE1 complex is 5 to 50 µM; in assay [1], 0.02 to 0.2 µM; in assay [2], 5 to 50 µM; on CDK9/cyclinT1 complex, 5 to 50 µM.
As to `CN(C)CC1CCCC1Nc1ncc(C(F)(F)F)c(-c2c[nH]c3c(P(C)(C)=O)cccc23)n1` (single isomer, unassigned) [Compound 136], the IC50 on CDK2/cyclinE1 complex was above 50 µM; in assay [1] it was 0.02 to 0.2 µM; in assay [2], above 50 µM; against CDK9/cyclinT1 complex it was above 50 µM.
In the case of `FC(F)(F)c1cnc(NC2CCC3(CCNCC3)C2)nc1-c1c[nH]c2nc(N3CCOCC3)ccc12` (stereo not shown) [Compound 42, N-(4-(6-morpholinyl-1H-pyrrolo[2,3-b]pyridin-3-yl)-5-(trifluoromethyl)pyrimidin-2-yl)-8-azaspiro[4.5]decan-2-amine], the IC50 lay in the range of 5 to 50 µM at CDK2/cyclinE1 complex, 0.02 to 0.2 µM in assay [1], 5 to 50 µM in assay [2] and 5 to 50 µM against CDK9/cyclinT1 complex.
Turning to `FC(F)(F)c1cnc(NC2CCC3CNCC32)nc1-c1c[nH]c2nc(N3CCOCC3)ccc12` (single isomer, unassigned) [Compound 56], the IC50 is above 50 µM against CDK2/cyclinE1 complex; 0.2 to 5 µM in assay [1]; above 50 µM in assay [2]; above 50 µM at CDK9/cyclinT1 complex; 5 to 50 µM with ovarian cancer A2780.
Regarding `N#Cc1ccc2c(-c3nc(N[C@@H]4CCC45CNC5)ncc3C(F)(F)F)c[nH]c2n1` [Compound 61, (R)-3-(2-((2-azaspiro[3.3]heptan-5-yl)amino)-5-(trifluoromethyl)pyrimidin-4-yl)-1H-pyrrolo[2,3-b]pyridine-6-carbonitrile], the IC50 on CDK2/cyclinE1 complex was 5 to 50 µM; in assay [1], below 0.02 µM; in assay [2], 5 to 50 µM; at CDK9/cyclinT1 complex it was 5 to 50 µM; in the assay with ovarian cancer A2780 (Homo sapiens, A2780, 72 h) it was 0.2 to 5 µM.
As to `C[C@@H](CO)Nc1ncc(C(N)=O)c(-c2c[nH]c3c(P(C)(C)=O)cccc23)n1` [Compound 180, (S)-4-(7-(dimethylphosphoryl)-1H-indole-3-yl)-2-((1-hydroxypropan-2-yl)amino)pyrimidine-5-carboxamide], the IC50 against CDK2/cyclinE1 complex is above 50 µM; in assay [1], 5 to 50 µM; in assay [2] it was above 50 µM; at CDK9/cyclinT1 complex it was above 50 µM.
Turning to `CP(C)(=O)c1cccc2c(-c3nc(NCC(O)C4CCC4)ncc3C(F)(F)F)c[nH]c12` (single isomer, unassigned) [Compound 139], the IC50 is 5 to 50 µM against CDK2/cyclinE1 complex, 0.02 to 0.2 µM in assay [1], above 50 µM in assay [2] and above 50 µM at CDK9/cyclinT1 complex.
Take `C[C@@H](CO)Nc1ncc(F)c(-c2c[nH]c3c(P(C)(C)=O)cccc23)n1` [Compound 157, (S)-(3-(5-fluoro-2-((1-hydroxypropan-2-yl)amino)pyrimidin-4-yl)-1H-indole-7-yl)dimethylphosphine oxide]: the IC50 against CDK2/cyclinE1 complex was 0.2 to 5 µM; in assay [1], 0.2 to 5 µM; in assay [2], above 50 µM; at CDK9/cyclinT1 complex it was above 50 µM.
Turning to `CC(C)(C)[C@H](CO)Nc1ncc(C(F)(F)F)c(-c2c[nH]c3c(P(C)(C)=O)cccc23)n1` [Compound 176], the IC50 in assay [3] was below 0.02 µM.
